Source: patent US20040170622A1, “Methods and compositions for modulating XBP-1 activity” (President and Fellows of Harvard College, priority 2002, published 2004)
Where a SMILES comes first, the peptide text is derived from it. The star is where a group is joined. Cbz = O=C(OCc1ccccc1)*

How the values were obtained:
IRE1α = IRE1α phosphorylation in NIH3T3 cells (Western blot); format: cell-based
Procedure: (A) XBP-1 mRNA levels in ER stressed J558 cells treated with Tm for 4 hrs in the absence or presence of MG-132. Cells were pretreated with MG-132 for 1 hr before adding Tm. XBP-1 mRNA levels were determined by Northern blot analysis. […] (C) Effect of a panel of PIs on XBP-1 splicing. Cells were treated with Tm for 4 hrs in the absence or presence of MG-132 (10 μM), PS-341 (10 μM), Lactacystin (10 μM), ZL3VS (50 μM) or AdaAhxL3VS (50 μM), and XBP-1 mRNA splicing measured by RT-PCR analysis. (D) IRE-1α phosphorylation in NIH3T3 cells were treated with Tm as indicated after 2 hrs of pretreatment with MG-132 (10 μM).
Cells were lysed in RIPA buffer (50 mM Tris pH 7.4, 150 mM NaCl, 1 mM EDTA, 1% Triton X-100, 1% sodium deoxycholate, 0.1% SDS) and lysates subjected to SDS-PAGE and transferred to Hybond P membrane (Amersham-Pharmacia, Piscataway, N.J.). […] HeLa cells were cotransfected with XBP-1u and His-tagged ubiquitin expression plasmids (pMT 107, D. Bohmann, EMBL, Germany) by using the Lipofectamine-2000 reagent (Invitrogen, Carlsbad, Calif.). […] Degradation rates of XBP-1u and XBP-1s proteins were determined by pulse labeling J558 cells with ^35S Met/Cys for 1 hr and chasing for the indicated times.

J558 myeloma cells = experiment: Apoptosis of J558 myeloma cells (Annexin V staining); format: cell-based; details: for apoptosis, combination of Tm and MG-132: J558, 18 hrs, suboptimal concentrations
Procedure: (A) BiP and CHOP induction was examined by northern blot analysis after treating NIH3T3 or J558 myeloma cells with either MG-132 (20 μM), Tm (10 μg/ml) or both. Cells were pretreated with MG-132 for 1 hr and then further treated with Tm for 4 hrs. Ethidium bromide staining of the gel is shown at the bottom. (B) Inhibition of caspase-12 processing by proteasome inhibitors. Processing of full-length caspase-12 was examined by Western blotting in J558 myeloma cells treated with thapsigargin (1 μM) or PIs (20 μM) during the indicated time periods. (C) Alteration in the ratio of XBP-1 protein species in J558 cells were treated with increasing amounts of MG-132 for 16 hrs. Cells undergoing apoptosis were counted by Annexin V staining. (D) Time course of the XBP-1s to XBP-1u shift. Cells were treated with MG-132 (1 μM) for the indicated times and XBP-1u and spliced protein levels and cell death determined. (E) Alteration in the ratio of XBP-1 species in the MM.1s human myeloma line. Cells were treated with PS-341 (8 nM) in a time course analysis and XBP-1 protein species quantified.
(A) Synergistic effect of Tm and MG-132 on apoptosis. Annexin V positive cells were counted after treating J558 cells for 18 hrs with suboptimal concentrations of Tm and MG-132 as indicated. (B) J558-iXBP cells were generated by retroviral transduction of J558 cells with the U6 promoter based XBP-1 RNAi vector. (C) XBP-1 dependent gene expression in J558 cells that express control GFP, dn-XBP or iXBP-1 treated with Tm. Generation of dn-XBP-1 J558 cells by infection with a retrovirus containing dn-XBP cDNA inserted into the GFP-RV vector (N. N. lwakoshi et al., Nature Immunology 4, 321-329 (2003)). ERdj4, p58^IPK, BiP and CHOP gene expression were examined by Northern blot analysis. (D) Increased apoptosis in iXBP-1 and dn-XBP-1 expressing J558 cells. Cells were treated with the indicated amounts of Tm for 48 hrs and dead cells counted after Annexin V staining.
Cells were stained with annexin V-PE (BD PharMingen, San Jose, Calif.) as recommended and analyzed on a FACScan flow cytometer (Becton Dickinson, San Jose, Calif.).

With CC(C)C[C@@H](C=O)NC(=O)[C@H](CC(C)C)NC(=O)[C@H](CC(C)C)NC(=O)OCc1ccccc1 [MG-132] (Cbz-Leu-Leu-Leu-aldehyde) the “effect on Tm-induced IRE1α phosphorylation” value (IRE1α; 2 hrs pretreatment with MG-132 10 μM) was “completely blocked the phosphorylation of IRE1α by Tm”, the “apoptosis, combination of Tm and MG-132” value (J558 myeloma cells) was “synergistically induced apoptosis” and the “apoptosis in J558 cells” value (J558 myeloma cells; agent alone) was “induced apoptosis in J558 cells”.

For tunicamycin [Tm], the IRE1α phosphorylation (IRE1α; Tm-treated vs untreated cells) was “increase in the phosphorylated (slower mobility) and decrease in unphosphorylated IRE1α species” and the “apoptosis, combination of Tm and MG-132” value (J558 myeloma cells) was “synergistically induced apoptosis”.

B1: dn-XBP: dominant negative XBP-1 containing the N-terminal 188 aa, lacking transactivation domain, retaining leucine zipper (protein)
chain: MVVVAAAPSAATAAPKVLLLSGQPASGGRALPLMVPGPRAAGSEASGTPQARKRQRLTHLSPEEKALRRKLKNRVAAQTARDRKKARMSELEQQVVDLEEENHKLQLENQLLREKTHGLVVENQELRTRLGMDTLDPDEVPEVEAKGSGVRLVAGSAESAAGAGPVVTSPEHLPMDSDTVASSDSESD
With B1 the “apoptosis upon Tm treatment compared to control GFP-transduced cells” value (J558 myeloma cells; transduced J558 cells, Tm 48 hrs) was “significantly increased apoptosis” and the “cell proliferation or viability at baseline” value (J558 myeloma cells; transduced J558 cells, no Tm) was “No effect on cell proliferation or viability”.
